Patent US8071613B2, “Anti-constipation composition” (Sucampo AG, priority 2000, dated 2011)
Blank lines part the entries; values can stand above or below the compound they belong to.

Columns and labels:
intraintestinal content = assay: Enteropooling test; type: in vivo; settings: dose that raises the intraintestinal content by 50%
From the text: The enteropooling test employed in the present invention is intended to investigate mainly on the action (ii) and/or (iii), which assesses the effect of the drug on the intraintestinal water pool by measuring the volume of the intraintestinal content. The bi-cyclic-halogenated compounds of the present invention may show extremely great enteropooling effect. However, they hardly or slightly cause contraction of intestines which is one of indexes for assessment of the action (iv). Accordingly, the bi-cyclic-halogenated compounds of the present invention are considered to alleviate constipation by mainly acting on intestinal mucosa directly or indirectly to affect transfer of electrolytes and water from intestinal walls into blood vessels and/or from blood vessels into intestines, resulting in reduced water absorption and/or in increased water secretion through the intestines, increased intraintestinal water pool and promoted transfer of the intraintestinal content. Enteropooling tests and diarrhea tests were conducted. The dose that raise the intraintestinal content by 50% was referred to as ED50. [drawing 31] […]

[1] = Ratio of mono-cyclic/bi-cyclic structure by NMR measurement; type: physicochemical; settings: NMR measurement in CDCl3 solution
From the text: It has been discovered that in the absence of water, compounds represented by Formula (I) exist predominantly in the form of the bi-cyclic compound. In aqueous media, it is believed that hydrogen bonding occurs between, for example, the ketone position at the C-15 position, thereby hindering bi-cyclic ring formation. In addition, it is believed that the halogen atom(s) at the C-16 position promote bi-cyclic ring formation. The mono-cyclic/bi-cyclic structures, for example, may be present in a ratio of 1:6 in D2O; 1:10 in CD3OD-D2O and 4:96 in CDCl3. Accordingly, a preferable embodiment of the present invention is the composition in which the bi-cyclic form is present in ratio of bi -cyclic/mono-cyclic of least 1:1, and preferably 20:1, or even greater to substantially all bi-cyclic compound; 100% bi-cyclic compound is within this invention.
The biological activity of compositions due to the ratios of mono-cyclic/bi-cyclic structures when Z of general formula (I) is an oxygen atom, and a ketone is present at the C-9 position of the present invention can be seen from the following examples.

[2] = Storage stability at 40° C. dissolved in medium chain fatty acid triglyceride (MCT), content by HPLC; type: physicochemical; settings: for content of compound, initial / content of compound, 14 days: in MCT (compound 1 0.36 mg/g; compound 2 0.12 mg/g); for content of compound, initial: 40° C.; for content of compound, 14 days: in % (unit assumed)
Experimental: The following compounds 1 and 2 were dissolved in a medium chain fatty acid triglyceride (MCT=mixture of caprylic acid triglyceride and capric acid triglyceride in a ratio of 85:15) in an amount shown in the table below.
(§1) Each of the solutions was placed in a container made of hard glass and stored at 40° C. The time-course content of compound 1 and 2 in the solutions were determined by HPLC method. At the same time, each of compounds 1 and 2 was placed solely (without being dissolved in the solvent) in the container as above, and stored at 40° C. to provide control study.
(2) In the presence of the solvent, the content of the compound was determined as follows by HPLC method.
Based on the value expressed in the above table, an amount of the solution corresponding to 36 μg of compounds 1 and 2 was weighed precisely. Precisely 1.0 mL of an internal standard solution was added, and then ethyl acetate, (liquid chromatograph grade) was added to give a total amount of 10 mL each. Each 0.1 mL of the solution was vacuum concentrated to dryness to give the test preparation.
Each 18 mg of the standard compounds was weighed precisely and admixed with ethyl acetate (liquid chromatograph grade) to give the total amount of exactly 50 mL each. 1.0 mL of the solution and 10.0 mL of the internal standard solution were measured precisely and admixed with ethyl acetate (liquid chromatograph grade) to give a total of 100 mL each. Each 0.1 mL of the solution was vacuum concentrated to dryness to give the standard preparation.
To the test and standard preparations, 0.1 mL of fluorescent labeling reagent and 0.85 mL of fluorescent labeling catalyst were added, respectively, and the mixture was stirred and reacted at room temperature for more than 30 minutes. 0.05 mL aliquots of acetonitrile (liquid chromatograph grade) containing 2% acetic acid were added to the reaction mixtures, respectively, stirred, and then allowed to stand for more than 30 minutes to provide test and standard solutions.
Each 10 μL of the test and standard solution was loaded on liquid chromatograph and determined the content of the respective compounds by internal standard method with one point calibration curve.
(§2) WX: The amount of the compound in the standard preparation (mg)
(§3) QS: Peak area ratio of the compound in the standard preparation to the internal standard.
(§4) QT: Peak area ratio of the compound in the test preparation to the internal standard.
Detector: Fluorescent spectrometer (excitation wavelength 259 nm; fluorescent wavelength 394 nm)
(§5) Column: A stainless tube having about 5 mm of internal diameter and about 25 cm of length, packed with 5 μm octadecylsilyl silica gel for liquid chromatograph
Column temperature: Stable at around 35° C.
Mobile phase: Mixed solution of acetonitrile (liquid chromatograph grade)/methanol (liquid chromatograph grade)/aqueous ammonium acetate (0.05 mol/L) (4:11:5)

[3] = Storage stability at 40° C. without solvent (crystal), content by HPLC; type: physicochemical; settings: crystal (no solvent); for content of compound, initial: hard glass container, 40° C.
Experimental: as §1
(1) In the absence of the solvent, the content of the compounds was determined as follows by the HPLC method.
Stored compounds 1 and 2, and standard compounds 1 and 2 were weighed precisely around 0.025 g each, and exactly 5 mL aliquots of internal standard solution were added to the respectively weighed compounds. Test and standard preparations were obtained by adding acetonitrile (liquid chromatograph grade) to give the precise total amount of 10 mL each. Each 10 μL of the test and standard preparations were loaded on liquid chromatograph and determined the content of the compound by internal standard method with one point calibration curve.
as §2
WT: The amount of compound 1 and 2 in the test preparation.
as §3, §4
Detector: Ultraviolet absorption spectrophotometer (wavelength 294 nm)
as §5
Column temperature: Stable around 35° C.
Mobile phase: Mixed solution of acetonitrile (liquid chromatograph grade)/aqueous sodium acetate (0.01 mol/L)/glacial acetic acid (800:200:1)

healthy male volunteers = assay: Bowel movement after single oral administration to healthy male volunteers; type: in vivo, human
Experimental: Effect of the Present Invention Dissolved in Medium Chain Fatty Acid Triglyceride on Bowel Movement After Single Oral Administration to Healthy Male Volunteers
3 to 9 healthy male volunteers were treated with a composition containing the following mono-cyclic/bi-cyclic structures (in CDCl3) in a ratio of 4:96.
The test substance (R1 and R2 are F atoms) was dissolved in Panacet 800 (medium chain fatty acid triglyceride manufactured by Nippon Oil & Fat co., Ltd., Amagasaki, Japan) and filled in a capsule (each capsule contains […] of the mixture). Each subject was administered one capsule with 100 mL of water.

[4] = 5 μg single oral capsule in Panacet 800
[5] = 10 μg single oral capsule in Panacet 800
[6] = 20 μg single oral capsule in Panacet 800
[7] = 30 μg single oral capsule in Panacet 800

SMILES: CCCCC(F)(F)C1(O)CCC2C(CC(=O)C2CC=CCCCC(=O)OC)O1 (stereo not shown) [Example C]
- Enteropooling activity, ED50 (intraintestinal content): 0.3 µg/kg

- Ratio of mono-cyclic/bi-cyclic structure [1]: No signal
SMILES: CCCCCC(=O)CCC1C(O)CC(=O)C1CCCCCCC(=O)O (stereo not shown) [Comparative Example A, reference compound]
- Enteropooling activity, ED50 (intraintestinal content): 320 µg/kg

SMILES: CCCCC(F)(F)C1(O)CCC2C(CC(=O)C2CCCCCCC(=O)O)O1 (stereo not shown) [Example A]
- Enteropooling activity, ED50 (intraintestinal content): 0.6 µg/kg

- content of compound, initial [2]: 100%
- content of compound, 14 days ([2]; stored at 40° C.): 99.6
- content of compound, 28 days ([2]; in MCT (compound 2 0.12 mg/g), stored at 40° C., 28 days): 98.9%
- content of compound, 191 days ([2]; in MCT (compound 2 0.12 mg/g), stored at 40° C., 191 days): 99.6%
- content of compound, initial [3]: 100%
- content of compound, 6 days ([3]; stored at 40° C., 6 days): 84.5%
- content of compound, 14 days ([3]; stored at 40° C.): 75%
- content of compound, 28 days ([3]; stored at 40° C.): 53.4%
SMILES: CC[C@H](C)CC(F)(F)C1(O)CC[C@@H]2C(CCCCCCC(=O)O)C(=O)C[C@H]2O1 (stereo partly shown) [compound 2]

SMILES: CCCCC(F)C(=O)CCC1C(O)CC(=O)C1CC=CCCCC(=O)OC (stereo not shown) [Example D]
- Enteropooling activity, ED50 (intraintestinal content): 3 µg/kg

SMILES: CCCCC(F)(F)C1(O)CCC2C(CC(=O)C2CCCCCCC(=O)O)O1 (stereo not shown) [test substance]
- Number of Subjects Loose or Diarrhea (healthy male volunteers; [4]): 2/3
- Number of Subjects Normal (healthy male volunteers; [4]): 1/3
- Number of Subjects Loose or Diarrhea (healthy male volunteers; [5]): 2/7
- Number of Subjects Normal (healthy male volunteers; [5]): 5/7
- Number of Subjects Loose or Diarrhea (healthy male volunteers; [6]): 2/3
- Number of Subjects Normal (healthy male volunteers; [6]): 1/3
- Number of Subjects Loose or Diarrhea (healthy male volunteers; [7]): 7/9
- Number of Subjects Normal (healthy male volunteers; [7]): 2/9

SMILES: CCCCCC(=O)CCC1C(O)CC(=O)C1CC=CCCCC(=O)OC (stereo not shown) [Comparative Example C, reference compound]
- Enteropooling activity, ED50 (intraintestinal content): 220 µg/kg

- content of compound, 38 days ([2]; in MCT (compound 1 0.36 mg/g), stored at 40° C., 38 days): 102.1
- content of compound, 90 days ([2]; in MCT (compound 1 0.36 mg/g), stored at 40° C., 90 days): 100.9
- content of compound, initial [2]: 100%
- content of compound, 14 days ([2]; stored at 40° C.): 101.4
- content of compound, initial [3]: 100%
- content of compound, 7 days ([3]; stored at 40° C., 7 days): 97.2
- content of compound, 14 days ([3]; stored at 40° C.): 94.1%
- content of compound, 28 days ([3]; stored at 40° C.): 87.4%
SMILES: CCCCC(F)(F)C1(O)CC[C@@H]2C(CCCCCCC(=O)O)C(=O)C[C@H]2O1 (stereo partly shown) [compound 1]

SMILES: CCCCC(F)C(=O)CCC1C(O)CC(=O)C1CCCCCCC(=O)O (stereo not shown) [Example B]
- Enteropooling activity, ED50 (intraintestinal content): 2 µg/kg
